From US6664106B1, “Production of primmorphs from disassociated cells of sponges and corals” (priority 1998, dated 2003)

Legend:
Type in all cases: cell-based, Suberites domuncula
[1] = system: primmorphs from S. domuncula; assay: DNA synthesis in primmorphs by BrdU labelling; settings: for percentage share of BrdU-positive cells (change in words): after addition as nutrient
Procedure: In order to determine the cell proliferation, the integration of BrdU [5-bromo-2′-deoxy-uridine] into the cellular DNA was measured using the “BrdU-iabeling and detection kit”, in accordance with the manufacturer's instructions.
For this purpose, the primmorphs are incubated, usually in 1 ml of the seawater/antibiotic solution, which also contains the BrdU labelling solution [final dilution: usually 1:1,000 (10 μM of BrdU)]. The incubation period is usually 12 hours; the incubation itself is carried out in culture chambers [e.g. the “culture chamber slides (Nunc)”—catalogue number 177453]. Subsequently, the cells are dissociated in CFMSW-E, washed three times in CFMSW-E and fixed/denatured in 70% ethanol [pH 2.0]. After that, the cells are incubated with anti-BrdU mouse monoclonal antibodies and the immune complex is made visible with anti-mouse Ig coupled to alkaline phosphatase and with the dye substrate nitro-blue tetrazolium salt. The cells are analysed under a light-optical microscope.
The primary primmorphs were obtained from individual cells from S. domuncula and used for the experiments after 21 days.
For this reason, the influence of a phorbol ester, phorbol 12-inyristate 13-acetate (PMA), on the percentage of BrdU-positive cells in primmorphs from S. domuncula was determined. The primmorphs were incubated for two days with different concentrations of PMA. After that, the DNA synthesis was determined by means of BrdU labelling as described above. The control, percentage of BrdU-positive cells in primmorphs without the test substance, was set at 100%.
FIG. 5. Influence of the phorbol ester phorbol 12-myristate 13-acetate (PMA) on the percentage share of BrdU-positive cells in primmorphs from S. domuncula. The primmorphs were incubated for two days with different concentrations of PMA. After this, DNA synthesis was determined by means of BrdU labelling. The control, percentage share of BrdU-positive cells among primmorphs without the test substance, was set at 100%. 300 cells were counted per batch.
FIG. 6. Influence of cadmium, concentrations between 0.1 ng/ml and 100 ng/ml were chosen, on the amount of the percentage share of BrdU-positive cells among primmorphs.

[2] = system: primmorphs from S. domuncula; assay: Proliferation of cells in primmorphs (parallel batches, BrdU-positive binuclear stages); settings: 0.01 to 1 μg PMA/ml
Procedure: In order to determine whether the cells do in fact divide after the DNA synthesis, the same batches were analysed which were also used to detect the incorporation of BrdU into cells from the primmorphs of S. domuncula. Those cells which were positive for BrdU and which were still in the binuclear stage after undergoing mitosis were counted.
In line with the above comments, it was also examined in parallel batches whether any change in proliferation occurred after incubation with the agent used here.

[3] = system: primmorphs from S. domuncula; assay: Size (diameter) of primmorphs after addition of nutrients; settings: after addition as nutrient

Row | Compound | percentage of BrdU-positive cells in primmorphs ([1]; 0.01 to 1 μg PMA/ml, incubated for two days, control without test substance set at 100%) | proliferation of cells in primmorphs [2] | percentage share of BrdU-positive cells (change in words) [1] | size of the primmorphs (change in words) [3] | percentage of BrdU-positive cells in primmorphs ([1]; cadmium at a concentration of 1 ng/ml and more, single exposure)
1 | CCCCCCCCCCCCCC(=O)O[C@@H]1[C@@H](C)[C@@]2(O)[C@@H](C=C(CO)C[C@]3(O)C(=O)C(C)=C[C@@H]23)[C@@H]2C(C)(C)[C@]12OC(C)=O [PMA, phorbol 12-myristate 13-acetate] | distinct percentage increase | increase | – | – | –
2 | phosphatidyl serine | – | – | rise | increase | –
3 | [Cd] [cadmium] | – | – | – | – | decline
4 | phosphatidylinositol | – | – | rise | increase | –
